Measurements published in ChEMBL document CHEMBL4130562, “Design, Synthesis, and Antibacterial Evaluation of Oxazolidinones with Fused Heterocyclic C-Ring Substructure” (ACS Med Chem Lett, 2017).
Values after ≈ are worked out from the molar mass of the structure shown.

Tests used:
Type in all cases: functional
[1] = tested on: Staphylococcus aureus; experiment: Antibacterial activity against methicillin-resistant Staphylococcus aureus 1201984 by microbroth dilution method
[2] = tested on: Enterococcus faecium; experiment: Antibacterial activity against Enterococcus faecium 19434 by microbroth dilution method
[3] = tested on: Enterococcus faecalis; experiment: Antibacterial activity against Enterococcus faecalis ATCC 29212 by microbroth dilution method
[4] = tested on: Staphylococcus aureus; experiment: Antibacterial activity against Staphylococcus aureus ATCC 29213 by microbroth dilution method
[5] = tested on: Staphylococcus aureus; experiment: Antibacterial activity against Staphylococcus aureus ATCC 6538P by microbroth dilution method
[6] = tested on: Staphylococcus epidermidis; experiment: Antibacterial activity against Staphylococcus epidermidis ATCC 14990 by microbroth dilution method
[7] = tested on: Staphylococcus aureus; experiment: Antibacterial activity against Staphylococcus aureus ATCC 33591 by microbroth dilution method
[8] = tested on: Haemophilus influenzae; experiment: Antibacterial activity against Haemophilus influenzae ATCC 49247 by microbroth dilution method
[9] = tested on: Staphylococcus aureus; experiment: Antibacterial activity against linezolid-resistant Staphylococcus aureus by microbroth dilution method
[10] = tested on: Streptococcus pyogenes; experiment: Antibacterial activity against Streptococcus pyogenes ATCC 19615 by microbroth dilution method
[11] = tested on: Streptococcus pneumoniae; experiment: Antibacterial activity against Streptococcus pneumoniae 55143 by microbroth dilution method

SMILES	MIC [1] [µg/mL]	MIC [2] [µg/mL]	MIC [3] [µg/mL]	MIC [4] [µg/mL]	MIC [5] [µg/mL]	MIC [6] [µg/mL]	MIC [7] [µg/mL]	MIC [8] [µg/mL]	MIC [9] [µg/mL]	MIC [10] [µg/mL]	MIC [11] [µg/mL]
CC(=S)NC[C@H]1CN(c2ccc(-c3ccc4c(c3)NC(=O)CO4)c(F)c2)C(=O)O1	0.06 (≈ 0.144 µM)	0.06 (≈ 0.144 µM)	0.06 (≈ 0.144 µM)	0.06 (≈ 0.144 µM)	0.06 (≈ 0.144 µM)	0.06 (≈ 0.144 µM)	0.125 (≈ 0.301 µM)	0.125 (≈ 0.301 µM)	0.125 (≈ 0.301 µM)	0.06 (≈ 0.144 µM)	0.06 (≈ 0.144 µM)
CN[C@H](CC(C)C)C(=O)N[C@H]1C(=O)N[C@@H](CC(N)=O)C(=O)N[C@H]2C(=O)N[C@H]3C(=O)N[C@H](C(=O)N[C@H](C(=O)O)c4cc(O)cc(O)c4-c4cc3ccc4O)[C@H](O)c3ccc(c(Cl)c3)Oc3cc2cc(c3O[C@@H]2O[C@H](CO)[C@@H](O)[C@H](O)[C@H]2O[C@H]2C[C@](C)(N)[C@H](O)[C@H](C)O2)Oc2ccc(cc2Cl)[C@H]1O [VANCOMYCIN]	–	–	2 (≈ 1.38 µM)	–	–	–	–	–	–	2 (≈ 1.38 µM)	2 (≈ 1.38 µM)
O=C1COc2c(cccc2-c2ccc(N3C[C@H](CO)OC3=O)cc2F)N1	8 (≈ 22.3 µM)	32 (≈ 89.3 µM)	16 (≈ 44.7 µM)	2 (≈ 5.58 µM)	8 (≈ 22.3 µM)	2 (≈ 5.58 µM)	4 (≈ 11.2 µM)	1 (≈ 2.79 µM)	> 32	8 (≈ 22.3 µM)	8 (≈ 22.3 µM)
O=C1Cc2ccc(-c3ccc(N4C[C@H](CO)OC4=O)cc3F)cc2N1	32 (≈ 93.5 µM)	0.25 (≈ 0.73 µM)	0.25 (≈ 0.73 µM)	1 (≈ 2.92 µM)	0.25 (≈ 0.73 µM)	< 0.06	32 (≈ 93.5 µM)	2 (≈ 5.84 µM)	4 (≈ 11.7 µM)	0.125 (≈ 0.365 µM)	0.125 (≈ 0.365 µM)
Cl.NC[C@H]1CN(c2ccc(-c3ccc4c(c3)NC(=O)CO4)c(F)c2)C(=O)O1	8	4	8	8	4	4	16	4	> 32	4	4
O=C1COc2cccc(-c3ccc(N4C[C@H](CO)OC4=O)cc3F)c2N1	> 32	> 32	> 32	> 32	> 32	> 32	> 32	> 32	> 32	> 32	> 32
O=C1COc2ccc(-c3ccc(N4C[C@H](CNC(=O)C5CC5)OC4=O)cc3F)cc2N1	1 (≈ 2.35 µM)	0.125 (≈ 0.294 µM)	0.25 (≈ 0.588 µM)	1 (≈ 2.35 µM)	0.25 (≈ 0.588 µM)	0.25 (≈ 0.588 µM)	1 (≈ 2.35 µM)	1 (≈ 2.35 µM)	4 (≈ 9.4 µM)	0.5 (≈ 1.18 µM)	0.5 (≈ 1.18 µM)
CC(=O)NC[C@H]1CN(c2ccc(N3CCOCC3)c(F)c2)C(=O)O1 [LINEZOLID]	1 (≈ 2.96 µM)	2 (≈ 5.93 µM)	–	–	1 (≈ 2.96 µM)	–	1 (≈ 2.96 µM)	4 (≈ 11.9 µM)	16 (≈ 47.4 µM)	0.5 (≈ 1.48 µM)	–
COC(=O)NC[C@H]1CN(c2ccc(-c3ccc4c(c3)NC(=O)CO4)c(F)c2)C(=O)O1	0.06 (≈ 0.144 µM)	0.06 (≈ 0.144 µM)	0.06 (≈ 0.144 µM)	0.125 (≈ 0.301 µM)	0.06 (≈ 0.144 µM)	0.06 (≈ 0.144 µM)	0.125 (≈ 0.301 µM)	0.125 (≈ 0.301 µM)	0.5 (≈ 1.2 µM)	0.06 (≈ 0.144 µM)	0.06 (≈ 0.144 µM)
O=C1NCCOc2ccc(-c3ccc(N4C[C@H](CO)OC4=O)cc3F)cc21	0.5 (≈ 1.34 µM)	0.5 (≈ 1.34 µM)	0.5 (≈ 1.34 µM)	0.5 (≈ 1.34 µM)	0.25 (≈ 0.671 µM)	0.25 (≈ 0.671 µM)	1 (≈ 2.69 µM)	1 (≈ 2.69 µM)	4 (≈ 10.7 µM)	0.5 (≈ 1.34 µM)	0.5 (≈ 1.34 µM)
O=C1O[C@@H](CO)CN1c1ccc(-c2ccc3oc(=O)[nH]c3c2)c(F)c1	32 (≈ 92.9 µM)	0.25 (≈ 0.726 µM)	0.5 (≈ 1.45 µM)	1 (≈ 2.9 µM)	0.25 (≈ 0.726 µM)	< 0.06	32 (≈ 92.9 µM)	4 (≈ 11.6 µM)	4 (≈ 11.6 µM)	0.125 (≈ 0.363 µM)	0.125 (≈ 0.363 µM)
O=C1O[C@@H](CO)CN1c1ccc(-c2ccc3c(c2)OCCO3)c(F)c1	32 (≈ 92.7 µM)	2 (≈ 5.79 µM)	4 (≈ 11.6 µM)	4 (≈ 11.6 µM)	1 (≈ 2.9 µM)	0.06 (≈ 0.174 µM)	32 (≈ 92.7 µM)	8 (≈ 23.2 µM)	> 32	0.5 (≈ 1.45 µM)	0.5 (≈ 1.45 µM)
C[C@H]1COc2c(N3CCN(C)CC3)c(F)cc3c(=O)c(C(=O)O)cn1c23.C[C@H]1COc2c(N3CCN(C)CC3)c(F)cc3c(=O)c(C(=O)O)cn1c23.O [LEVOFLOXACIN]	16	4	0.25	0.125	0.125	0.5	0.25	0.06	> 32	0.06	0.125
O=C(CO)NC[C@H]1CN(c2ccc(-c3ccc4c(c3)NC(=O)CO4)c(F)c2)C(=O)O1	1 (≈ 2.41 µM)	0.06 (≈ 0.144 µM)	0.06 (≈ 0.144 µM)	1 (≈ 2.41 µM)	0.25 (≈ 0.602 µM)	0.25 (≈ 0.602 µM)	1 (≈ 2.41 µM)	0.5 (≈ 1.2 µM)	4 (≈ 9.63 µM)	0.125 (≈ 0.301 µM)	0.125 (≈ 0.301 µM)
Cc1nc2ccc(-c3ccc(N4C[C@H](CO)OC4=O)cc3F)cc2c(=O)[nH]1	0.25 (≈ 0.677 µM)	0.25 (≈ 0.677 µM)	0.5 (≈ 1.35 µM)	0.25 (≈ 0.677 µM)	0.125 (≈ 0.338 µM)	0.125 (≈ 0.338 µM)	0.5 (≈ 1.35 µM)	0.5 (≈ 1.35 µM)	2 (≈ 5.41 µM)	0.25 (≈ 0.677 µM)	0.25 (≈ 0.677 µM)
Cl.N=C(N)NC[C@H]1CN(c2ccc(-c3ccc4c(c3)NC(=O)CO4)c(F)c2)C(=O)O1	> 32	> 32	> 32	> 32	> 32	> 32	> 32	> 32	> 32	> 32	> 32
O=C1O[C@@H](CO)CN1c1ccc(-c2cnc3ccc(=O)[nH]c3c2)c(F)c1	16 (≈ 45 µM)	0.125 (≈ 0.352 µM)	0.5 (≈ 1.41 µM)	0.5 (≈ 1.41 µM)	0.25 (≈ 0.704 µM)	0.25 (≈ 0.704 µM)	0.25 (≈ 0.704 µM)	0.5 (≈ 1.41 µM)	8 (≈ 22.5 µM)	0.25 (≈ 0.704 µM)	0.25 (≈ 0.704 µM)
O=C1O[C@@H](CO)CN1c1ccc(-c2ccc3c(c2)NC(=O)C2(CC2)O3)c(F)c1	< 0.06	< 0.06	0.125 (≈ 0.325 µM)	0.25 (≈ 0.65 µM)	< 0.06	< 0.06	0.5 (≈ 1.3 µM)	0.5 (≈ 1.3 µM)	2 (≈ 5.2 µM)	0.25 (≈ 0.65 µM)	0.25 (≈ 0.65 µM)
O=C1COc2ccc(-c3ccc(N4C[C@H](CNC(=O)C5CCC5)OC4=O)cc3F)cc2N1	0.5 (≈ 1.14 µM)	0.06 (≈ 0.137 µM)	0.06 (≈ 0.137 µM)	0.5 (≈ 1.14 µM)	0.125 (≈ 0.284 µM)	0.25 (≈ 0.569 µM)	0.5 (≈ 1.14 µM)	1 (≈ 2.28 µM)	2 (≈ 4.55 µM)	1 (≈ 2.28 µM)	1 (≈ 2.28 µM)
O=C1COc2ccc(-c3ccc(N4C[C@H](CNC(=O)C(F)F)OC4=O)cc3F)cc2N1	0.5 (≈ 1.15 µM)	0.06 (≈ 0.138 µM)	0.06 (≈ 0.138 µM)	0.5 (≈ 1.15 µM)	0.125 (≈ 0.287 µM)	0.125 (≈ 0.287 µM)	0.5 (≈ 1.15 µM)	0.5 (≈ 1.15 µM)	4 (≈ 9.19 µM)	0.25 (≈ 0.574 µM)	0.25 (≈ 0.574 µM)
O=C1COc2ccc(-c3ccc(N4C[C@H](CO)OC4=O)cc3F)nc2N1	0.25 (≈ 0.696 µM)	0.25 (≈ 0.696 µM)	0.25 (≈ 0.696 µM)	0.5 (≈ 1.39 µM)	0.125 (≈ 0.348 µM)	< 0.06	0.125 (≈ 0.348 µM)	1 (≈ 2.78 µM)	4 (≈ 11.1 µM)	0.25 (≈ 0.696 µM)	0.25 (≈ 0.696 µM)
O=C1CCOc2ccc(-c3ccc(N4C[C@H](CO)OC4=O)cc3F)cc2N1	0.125 (≈ 0.336 µM)	0.125 (≈ 0.336 µM)	0.25 (≈ 0.671 µM)	0.125 (≈ 0.336 µM)	0.06 (≈ 0.161 µM)	0.06 (≈ 0.161 µM)	0.5 (≈ 1.34 µM)	0.5 (≈ 1.34 µM)	2 (≈ 5.37 µM)	0.25 (≈ 0.671 µM)	0.25 (≈ 0.671 µM)
CS(=O)(=O)NC[C@H]1CN(c2ccc(-c3ccc4c(c3)NC(=O)CO4)c(F)c2)C(=O)O1	1 (≈ 2.3 µM)	0.125 (≈ 0.287 µM)	0.25 (≈ 0.574 µM)	8 (≈ 18.4 µM)	0.25 (≈ 0.574 µM)	0.5 (≈ 1.15 µM)	1 (≈ 2.3 µM)	0.5 (≈ 1.15 µM)	8 (≈ 18.4 µM)	0.25 (≈ 0.574 µM)	0.25 (≈ 0.574 µM)
O=C1COc2cc(-c3ccc(N4C[C@H](CO)OC4=O)cc3F)ccc2N1	0.5 (≈ 1.4 µM)	1 (≈ 2.79 µM)	1 (≈ 2.79 µM)	0.5 (≈ 1.4 µM)	0.5 (≈ 1.4 µM)	0.5 (≈ 1.4 µM)	0.5 (≈ 1.4 µM)	0.25 (≈ 0.698 µM)	16 (≈ 44.7 µM)	2 (≈ 5.58 µM)	2 (≈ 5.58 µM)
CCC(=O)NC[C@H]1CN(c2ccc(-c3ccc4c(c3)NC(=O)CO4)c(F)c2)C(=O)O1	0.5 (≈ 1.21 µM)	0.06 (≈ 0.145 µM)	0.25 (≈ 0.605 µM)	0.25 (≈ 0.605 µM)	0.125 (≈ 0.302 µM)	0.125 (≈ 0.302 µM)	0.25 (≈ 0.605 µM)	0.25 (≈ 0.605 µM)	1 (≈ 2.42 µM)	0.25 (≈ 0.605 µM)	0.5 (≈ 1.21 µM)
CC1(C)Oc2ccc(-c3ccc(N4C[C@H](CO)OC4=O)cc3F)cc2NC1=O	0.25 (≈ 0.647 µM)	0.25 (≈ 0.647 µM)	0.5 (≈ 1.29 µM)	0.25 (≈ 0.647 µM)	0.125 (≈ 0.324 µM)	< 0.06	1 (≈ 2.59 µM)	0.125 (≈ 0.324 µM)	16 (≈ 41.4 µM)	0.25 (≈ 0.647 µM)	0.25 (≈ 0.647 µM)
